In patent publication US5356928A, “Cytotoxic agents” (Hauser Chemical Research, Inc., priority 1993, dated 1994):
≈ marks a conversion by molar mass, not a printed value. Entries after “also recorded” stand apart in the source; their conditions may differ. Like-named read-outs stand apart in the source and are kept apart here.

Columns and labels:
[1] = tested on: Tubulin free of microtubule-associated proteins; test: Tubulin Assembly (microtubule assembly; protein concentration of the supernatant); assay type: biochemical, bovine; conditions: for Tubulin Assembly ED50: concentration which reduces the supernatant protein concentration by 50%, tubulin 1 mg/ml, 37° C., 15 minutes, PEM buffer pH 6.9; for Tubulin Assembly ED50 /ED50 Taxol: relative to control sample of taxol, less than 1 = greater activity than taxol
From the text: This example illustrates the results of biological tests on the compounds of this invention and certain "controls" with respect to tubulin binding and the effect of these compounds on B16 melanoma. The following procedures were employed:
Tubulin Preparation and Assembly. The tubulin testing was done exactly as described by Himes (Georg, G. I., et al., "Synthesis of Biologically Active Taxol Analogs with Modified Phenylisoserine Side Chains", J. Med. Chem. Vol. 35: 4230, (1992)), incorporated herein by reference. Tubulin free of microtubule-associated proteins was purified from bovine brain as described in Algaier, J.; Himes, R. H., "The Effect of Dimethyl Sulfoxide on the Kinetics of Tubulin Assembly" Biochim. Biophys. Acta, Vol 954, pp 235-243, 1988. The assembly reaction was done at 37° C. in PEM buffer ([…], pH 6.9, 1 mM EGTA, and 1 mM MgSO4) at a protein concentration of 1 mg/ml (10 μM) in the presence of taxol or taxol analogs and 0.5 mM GTP. The reaction was monitored by the increase in the apparent absorbance at 350 nm.
Taxol has been included in Table 1 for reference. […] A number less than 1 in these columns indicates greater activity than taxol. A number greater than 1 in these columns indicates lower activity than taxol. These tests have been used and relied upon by researchers in this field to determine the potential efficacy of taxol and/or a taxol analog for the treatment of cancer.
^b Tubulin at 1 mg/ml was incubated with various concentrations of th
compounds at 37° C. for 15 minutes in 0.5 ml of PEM buffer (0.1M
Pipes, 1 mM EGTA, 1 mM MgSO4, pH 6.9). Samples were centrifuged and
the protein concentration on the supernatant was determined.
^d The concentration in μg/ml which reduces the supernatant protei

[2] = tested on: B16 melanoma cells; test: B16 Melanoma Cell Proliferation; assay type: cell-based; conditions: for IC50: Mus musculus, read-out: B16 Proliferation ED50; for B16 Proliferation ED50 /ED50 Taxol: relative to control sample of taxol, less than 1 = greater activity than taxol
Experimental: The following procedures were employed:
B16 Melanoma Cell Proliferation. Cells were seeded in 24-well plates at 7.5×10^4 cells/well and grown in Delbecco's modified minimal essential medium (MEM) containing 10% bovine calf serum at 37° C. for 24 hours in a 97% humidified atmosphere of 5.5% CO2, the medium was then replaced with fresh medium containing taxol or its derivatives and dissolved in DMSO in concentrations ranging from […] to 1×10^-7 M for taxol and other derivatives. The final concentration of DMSO in the cell medium was 0.5% or less. […] After 40 hours, the cells were released by trypsinization and counted in a Coulter counter.
A number less than 1 in these columns indicates greater activity than taxol. A number greater than 1 in these columns indicates lower activity than taxol.

[3] = tested on: tubulin; conditions: Taxotere compared with taxol; taxol per Schiff et al.; Kingston review; cited from earlier work
[4] = tested on: cell; conditions: literature on taxol and taxol analogs (Kingston); cited from earlier work
[5] = tested on: taxol-resistant tumor cells; conditions: Taxotere vs taxol; cited from earlier work
[6] = tested on: P388 murine leukemia cells; conditions: Taxotere vs taxol; cited from earlier work
[7] = cited from earlier work
[8] = tested on: macrophage-like J774.2 cells; conditions: mouse macrophage-like J774.2 cells; Taxotere vs taxol; cited from earlier work
[9] = B16, concentration which reduces the number of cells by 50 [%] compared to a control, about 40 h at 37° C., highest concentration used 1000 ng/ml

SMILES	Tubulin Assembly ED50 [1]	Tubulin Assembly ED50 /ED50 Taxol [1]	IC50 ([2]; B16, 40 h)	B16 Proliferation ED50 /ED50 Taxol [2]	also measured
CC(=O)O[C@@]12CO[C@@H]1C[C@H](O[C@@H]1OC[C@@H](O)[C@H](O)[C@H]1O)[C@@]1(C)C(=O)[C@H](O)C3=C(C)[C@@H](OC(=O)[C@H](O)[C@@H](NC(=O)c4ccccc4)c4ccccc4)C[C@@](O)([C@@H](OC(=O)c4ccccc4)[C@H]21)C3(C)C [Compound 5, 10-deacetyl-7-xylosyl taxol]	0.72 µg/mL	0.70	> 1 µg/mL	> 44	
CCCCCC(=O)N[C@@H](c1ccccc1)[C@@H](O)C(=O)O[C@H]1C[C@@]2(O)[C@@H](OC(=O)c3ccccc3)[C@@H]3[C@]4(OC(C)=O)CO[C@@H]4C[C@H](O[C@@H]4OCC(O)OC4O)[C@@]3(C)C(=O)[C@H](O)C(=C1C)C2(C)C (stereo partly shown) [Compound 14]	1.45 µg/mL	1.70		8.28	IC50 [2, 9]: 0.186 µg/mL (≈ 0.201 µM)
CC(=O)O[C@H]1C(=O)[C@@]2(C)[C@H]([C@H](OC(=O)c3ccccc3)[C@]3(O)C[C@H](OC(=O)[C@H](O)[C@@H](NC(=O)c4ccccc4)c4ccccc4)C(C)=C1C3(C)C)[C@]1(OC(C)=O)CO[C@@H]1C[C@@H]2O [Compound 1, taxol]	1.08 µg/mL	1.26		0.95	activity as a promoter of tubulin polymerization / tubulin binding, in words [3]: significant tubulin binding activity; ED50 for taxol in the assembly assay ([1]; control sample, denominator of ED50/ED50 Taxol, 15 min): 0.854 µg/mL; cytotoxicity / activity, in words [4]: significant cytotoxicity
C/C=C(\C)C(=O)N[C@@H](c1ccccc1)[C@@H](O)C(=O)O[C@H]1C[C@@]2(O)[C@@H](OC(=O)c3ccccc3)[C@@H]3[C@]4(OC(C)=O)CO[C@@H]4C[C@H](O[C@@H]4OCC(O)OC4O)[C@@]3(C)C(=O)[C@H](O)C(=C1C)C2(C)C (stereo partly shown) [Compound 10]	0.82 µg/mL	0.96	0.317 µg/mL (≈ 0.349 µM)	14.1	
CCCCCC(=O)N[C@@H](c1ccccc1)[C@@H](O)C(=O)O[C@H]1C[C@@]2(O)[C@@H](OC(=O)c3ccccc3)[C@@H]3[C@]4(OC(C)=O)CO[C@@H]4C[C@H](O[C@@H]4OC[C@@H](O)[C@H](O)[C@H]4O)[C@@]3(C)C(=O)[C@H](O)C(=C1C)C2(C)C [Compound 13, 10-deacetyl-7-xylosyl taxol C]	0.58 µg/mL	0.60	> 1 µg/mL	> 44	
CC(=O)O[C@H]1C(=O)[C@]2(C)[C@@H](O[C@@H]3OC[C@@H](O)[C@H](O)[C@H]3O)C[C@H]3OC[C@@]3(OC(C)=O)[C@H]2[C@H](OC(=O)c2ccccc2)[C@]2(O)C[C@H](OC(=O)[C@H](O)[C@@H](NC(=O)c3ccccc3)c3ccccc3)C(C)=C1C2(C)C [Compound 3, 7-xylosyl taxol]	0.82 µg/mL	0.80	0.925 µg/mL (≈ 0.938 µM)	40.8	
CC(=O)O[C@@]12CO[C@@H]1C[C@H](O)[C@@]1(C)C(=O)[C@H](O)C3=C(C)[C@@H](OC(=O)[C@H](O)[C@@H](NC(=O)OC(C)(C)C)c4ccccc4)C[C@@](O)([C@@H](OC(=O)c4ccccc4)[C@H]21)C3(C)C [Compound 2]					potency in taxol-resistant tumor cells, vs taxol [5]: at least five-fold more potent; potency as an inhibitor of replication, times more potent than taxol [6]: 1.5 times; water solubility, in words [7]: improved water solubility; activity as a promoter of tubulin polymerization / tubulin binding, in words [3]: slightly more active as a promoter of tubulin polymerization; also recorded: enhanced in vitro tubulin binding activity; potency as an inhibitor of replication, times more potent than taxol [8]: 1.5 times
CC(=O)O[C@@]12CO[C@@H]1C[C@H](O[C@@H](CO)OCCO)[C@@]1(C)C(=O)[C@H](O)C3=C(C)[C@@H](OC(=O)[C@H](O)[C@@H](NC(=O)c4ccccc4)c4ccccc4)C[C@@](O)([C@@H](OC(=O)c4ccccc4)[C@H]21)C3(C)C [Compound 15]	1.42 µg/mL	1.66		14.6	IC50 [2, 9]: 0.328 µg/mL (≈ 0.358 µM)
CC(=O)O[C@@]12CO[C@@H]1C[C@H](O[C@@H]1OCC(O)OC1O)[C@@]1(C)C(=O)[C@H](O)C3=C(C)[C@@H](OC(=O)[C@H](O)[C@@H](NC(=O)c4ccccc4)c4ccccc4)C[C@@](O)([C@@H](OC(=O)c4ccccc4)[C@H]21)C3(C)C (stereo partly shown) [Compound 6]	0.68 µg/mL	0.80	0.432 µg/mL (≈ 0.465 µM)	15.1	
C/C=C(\C)C(=O)N[C@@H](c1ccccc1)[C@@H](O)C(=O)O[C@H]1C[C@@]2(O)[C@@H](OC(=O)c3ccccc3)[C@@H]3[C@]4(OC(C)=O)CO[C@@H]4C[C@H](O[C@@H]4OC[C@@H](O)[C@H](O)[C@H]4O)[C@@]3(C)C(=O)[C@H](O)C(=C1C)C2(C)C [Compound 9, 10-deacetyl-7-xylosyl cephalomannine]	1.10 µg/mL	1.10	0.755 µg/mL (≈ 0.819 µM)	33.3	
CC(=O)O[C@H]1C(=O)[C@]2(C)[C@@H](O[C@@H]3OCC(O)OC3O)C[C@H]3OC[C@@]3(OC(C)=O)[C@H]2[C@H](OC(=O)c2ccccc2)[C@]2(O)C[C@H](OC(=O)[C@H](O)[C@@H](NC(=O)c3ccccc3)c3ccccc3)C(C)=C1C2(C)C (stereo partly shown) [Compound 4]	0.48 µg/mL	0.57		2.2	tubulin binding / in vitro tubulin assembly, in words ([1]; compared to taxol or to precursors): comparable to results for taxol; cytotoxicity, in words ([2]; B16 melanoma, compared to taxol or to precursors): comparable to results for taxol; IC50 [2, 9]: 0.05 µg/mL (≈ 0.0514 µM)
